Measurements: patent US20260085094A1, “STAPLED PEPTIDE AND USE THEREOF” (priority 2021, published 2026)

Tests used:
in vivo [1] = assay: in vivo; set-up: species or system cynomolgus macaques; conditions: cynomolgus monkey, sc, 0.02 mg/kg
Experimental: (§1) To test the in vivo pharmacokinetics of the polypeptides of the present disclosure in cynomolgus macaques. The pharmacokinetic characteristics of the polypeptides of the present disclosure after intravenous injection and subcutaneous injection in mammals were tested according to SOP. In the experiment, the polypeptide was prepared into a clear solution, which was administered to cynomolgus macaques by single subcutaneous injection (SC, 0.02 mpk). The vehicle for subcutaneous injection was citrate buffer (20 mM, pH=7). The whole blood was collected and prepared to obtain the plasma. The drug concentration was analyzed by LC-MS/MS method, and the pharmacokinetic parameters were calculated using Phoenix WinNonlin software.

in vivo [2] = assay: in vivo; set-up: species or system SD rats; conditions: rat, sc, 0.048 mg/kg
Experimental: as §1, with “SD rats.” for “cynomolgus macaques.”, “after” for “after intravenous injection and”, “rodents” for “mammals”, “rats” for “cynomolgus macaques”, “0.048” for “0.02”, “for” for “for subcutaneous”

in vivo [3] = assay: in vivo; set-up: species or system C57BL/6 mice; conditions: sc, 0.048 mg/kg
Experimental: as §1, with “C57BL/6 mice.” for “cynomolgus macaques.”, “rodents” for “mammals”, “mice” for “cynomolgus macaques”, “0.048” for “0.02”

GLP-1R = molecular target: T1, GLP-1R (Homo sapiens, UniProt P43220); assay: In vitro GLP-1R agonistic activity test (cAMP assay); format: cell-based; conditions: GLP-1R HEK293 cell line
T1 construct: host or cells: HEK293
Experimental: (§2) [table] The compounds to be tested were diluted 4-fold at 10 wells, starting from an initial concentration of 30 μM. […] The TopSeal-A film was removed, and readout was performed on EnVision.

GIPR = molecular target: T2, GIPR (Homo sapiens, UniProt P48546); assay: In vitro GIPR agonistic activity test (cAMP assay); format: cell-based; conditions: GIPR CHO cell line, read-out: GIP-1 EC50
T2 construct: host or cells: CHO
T2 sequence (P48546 22-466): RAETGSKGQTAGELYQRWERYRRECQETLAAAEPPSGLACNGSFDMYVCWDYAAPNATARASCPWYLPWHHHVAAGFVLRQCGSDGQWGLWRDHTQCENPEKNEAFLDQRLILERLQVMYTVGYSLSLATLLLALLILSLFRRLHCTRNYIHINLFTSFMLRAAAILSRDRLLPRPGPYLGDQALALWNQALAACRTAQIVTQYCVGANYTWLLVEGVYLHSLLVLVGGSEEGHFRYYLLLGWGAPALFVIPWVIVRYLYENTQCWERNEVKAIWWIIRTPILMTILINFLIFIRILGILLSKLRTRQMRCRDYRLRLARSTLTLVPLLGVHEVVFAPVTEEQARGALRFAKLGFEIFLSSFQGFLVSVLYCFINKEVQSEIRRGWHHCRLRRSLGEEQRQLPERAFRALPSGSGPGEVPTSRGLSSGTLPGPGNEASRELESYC
Experimental: as §2

GCGR = molecular target: T3, GCGR (Homo sapiens, UniProt P47871); assay: In vitro GCGR agonistic activity test (cAMP assay); format: cell-based; conditions: GCGR HEK293 cell line, read-out: GCG EC50
T3 construct: host or cells: HEK293
Experimental: as §2

T1 sequence (P43220 24-463, species assumed): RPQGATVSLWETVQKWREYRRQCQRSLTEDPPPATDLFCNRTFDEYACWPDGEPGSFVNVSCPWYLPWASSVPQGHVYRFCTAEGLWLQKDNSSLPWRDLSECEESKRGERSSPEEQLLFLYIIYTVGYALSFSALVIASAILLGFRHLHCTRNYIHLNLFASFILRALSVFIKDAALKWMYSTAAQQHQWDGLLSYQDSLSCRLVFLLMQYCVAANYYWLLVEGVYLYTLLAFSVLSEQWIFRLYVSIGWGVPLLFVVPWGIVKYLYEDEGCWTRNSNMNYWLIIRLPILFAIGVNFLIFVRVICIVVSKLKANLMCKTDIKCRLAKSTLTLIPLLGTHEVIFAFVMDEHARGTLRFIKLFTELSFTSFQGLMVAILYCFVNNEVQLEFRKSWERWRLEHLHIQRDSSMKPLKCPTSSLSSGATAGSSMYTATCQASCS
T3 sequence (P47871 26-477, species assumed): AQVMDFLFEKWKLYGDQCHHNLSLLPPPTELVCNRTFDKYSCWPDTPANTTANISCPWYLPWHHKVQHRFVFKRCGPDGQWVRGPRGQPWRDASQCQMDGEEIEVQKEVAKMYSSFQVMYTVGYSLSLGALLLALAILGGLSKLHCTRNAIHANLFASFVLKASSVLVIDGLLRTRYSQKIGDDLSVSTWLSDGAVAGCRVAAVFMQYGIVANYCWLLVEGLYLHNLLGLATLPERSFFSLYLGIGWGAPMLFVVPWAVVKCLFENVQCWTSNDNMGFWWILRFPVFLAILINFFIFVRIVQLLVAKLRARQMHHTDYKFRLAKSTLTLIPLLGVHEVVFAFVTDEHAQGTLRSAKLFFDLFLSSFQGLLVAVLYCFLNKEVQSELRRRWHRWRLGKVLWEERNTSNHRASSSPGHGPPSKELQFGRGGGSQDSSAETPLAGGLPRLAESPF

| Structure (SMILES) | AUC(0-t) (in vivo [1]) | Cmax (in vivo [1]) | Tmax (in vivo [1]) | half-life (in vivo [1]) | Cmax (in vivo [2]; SD) | Cmax (in vivo [3]; C57BL/6, mouse) | EC50 (GLP-1R) | AUC(0-t) (in vivo [2]; SD) | Tmax (in vivo [2]; SD) | half-life (in vivo [2]; SD) | EC50 (GIPR) | AUC(0-t) (in vivo [3]; C57BL/6, mouse) | Tmax (in vivo [3]; C57BL/6, mouse) | half-life (in vivo [3]; C57BL/6, mouse) | EC50 (GCGR) | also measured |
| --- | --- | --- | --- | --- | --- | --- | --- | --- | --- | --- | --- | --- | --- | --- | --- | --- |
| CC[C@H](C)[C@H](NC(=O)[C@H](Cc1ccccc1)NC(=O)[C@H](C)NC(=O)C(C)(C)NC(=O)[C@@H]1CCCCNC(=O)CN(C(=O)COCCOCCNC(=O)COCCOCCNC(=O)CC[C@H](NC(=O)CCCCCCCCCCCCCCCCCCC(=O)O)C(=O)O)CC(=O)NCCCC[C@H](NC(=O)[C@H](CC(=O)O)NC(=O)[C@H](CC(C)C)NC(=O)[C@](C)(CC(C)C)NC(=O)[C@@H](NC(=O)[C@H](CO)NC(=O)[C@H](Cc2ccc(O)cc2)NC(=O)[C@H](CC(=O)O)NC(=O)[C@H](CO)NC(=O)[C@@H](NC(=O)[C@H](Cc2ccccc2)NC(=O)[C@@H](NC(=O)CNC(=O)[C@H](CCC(N)=O)NC(=O)C(C)(C)NC(=O)[C@@H](N)Cc2ccc(O)cc2)[C@@H](C)O)[C@@H](C)O)[C@@H](C)CC)C(=O)N[C@@H](CCCCN)C(=O)N[C@@H](C)C(=O)N1)C(=O)N[C@@H](CCC(=O)O)C(=O)N[C@@H](Cc1ccc(O)cc1)C(=O)N[C@@H](CC(C)C)C(=O)N[C@@H](CC(C)C)C(=O)N[C@@H](CCC(=O)O)C(=O)NCC(=O)NCC(=O)N1CCC[C@H]1C(=O)N[C@@H](CO)C(=O)N[C@@H](CO)C(=O)NCC(=O)N[C@@H](C)C(=O)N1CCC[C@H]1C(=O)N1CCC[C@H]1C(=O)N1CCC[C@H]1C(=O)N[C@@H](CO)C(N)=O [WX002] | 5.1 µM·h | 54 nM | 24 h | 52 h | 30 nM | 69 nM |  |  |  |  |  |  |  |  |  | AUC(0-t) (in vivo [2]): 1.06 µM·h; Tmax (in vivo [2]): 20 h; half-life (in vivo [2]): 14 h; AUC(0-t) (in vivo [3]; mouse): 2.01 µM·h; Tmax (in vivo [3]; mouse): 8 h; half-life (in vivo [3]; mouse): 10 h |
| CC[C@H](C)[C@H](NC(=O)[C@H](Cc1ccccc1)NC(=O)[C@H](C)NC(=O)[C@@H]1CCCCNC(=O)CN(C(=O)COCCOCCNC(=O)COCCOCCNC(=O)CC[C@H](NC(=O)CCCCCCCCCCCCCCCCCCC(=O)O)C(=O)O)CC(=O)NCCCC[C@H](NC(=O)[C@H](CCCCN)NC(=O)[C@H](CC(=O)O)NC(=O)[C@H](CC(C)C)NC(=O)[C@](C)(CC(C)C)NC(=O)[C@@H](NC(=O)[C@H](CO)NC(=O)[C@H](Cc2ccc(O)cc2)NC(=O)[C@H](CC(=O)O)NC(=O)[C@H](CO)NC(=O)[C@@H](NC(=O)[C@H](Cc2ccccc2)NC(=O)[C@@H](NC(=O)CNC(=O)[C@H](CCC(N)=O)NC(=O)C(C)(C)NC(=O)[C@@H](N)Cc2ccc(O)cc2)[C@@H](C)O)[C@@H](C)O)[C@@H](C)CC)C(=O)N[C@@H](C)C(=O)N[C@@H](CCC(N)=O)C(=O)N1)C(=O)N[C@@H](CCC(=O)O)C(=O)N[C@@H](Cc1ccc(O)cc1)C(=O)N[C@@H](CC(C)C)C(=O)N[C@@H](CC(C)C)C(=O)N[C@@H](CCC(=O)O)C(=O)NCC(=O)NCC(=O)N1CCC[C@H]1C(=O)N[C@@H](CO)C(=O)N[C@@H](CO)C(=O)NCC(=O)N[C@@H](C)C(=O)N1CCC[C@H]1C(=O)N1CCC[C@H]1C(=O)N1CCC[C@H]1C(=O)N[C@@H](CO)C(N)=O [WX001] | 5.29 µM·h | 49 nM | 32 h | 61 h | 17 nM | 58 nM | 0.072 nM | 0.718 µM·h | 24 h | 25 h | 0.13 nM | 1.83 µM·h | 12 h | 16 h | 0.55 nM |  |
| CC[C@H](C)[C@H](NC(=O)[C@H](Cc1ccccc1)NC(=O)[C@H](C)NC(=O)C(C)(C)NC(=O)[C@H](CCC(N)=O)NC(=O)[C@H](C)NC(=O)[C@H](CCCCN)NC(=O)[C@H](CCCCN)NC(=O)[C@H](CC(=O)O)NC(=O)[C@H](CC(C)C)NC(=O)[C@](C)(CC(C)C)NC(=O)[C@@H](NC(=O)[C@H](CO)NC(=O)[C@H](Cc1ccc(O)cc1)NC(=O)[C@H](CC(=O)O)NC(=O)[C@H](CO)NC(=O)[C@@H](NC(=O)[C@H](Cc1ccccc1)NC(=O)[C@@H](NC(=O)CNC(=O)[C@H](CCC(N)=O)NC(=O)C(C)(C)NC(=O)[C@@H](N)Cc1ccc(O)cc1)[C@@H](C)O)[C@@H](C)O)[C@@H](C)CC)C(=O)N[C@@H](CCC(=O)O)C(=O)N[C@H]1CCCCNC(=O)CN(C(=O)COCCOCCNC(=O)COCCOCCNC(=O)CC[C@H](NC(=O)CCCCCCCCCCCCCCCCCCC(=O)O)C(=O)O)CC(=O)NCCCC[C@@H](C(=O)NCC(=O)NCC(=O)N2CCC[C@H]2C(=O)N[C@@H](CO)C(=O)N[C@@H](CO)C(=O)NCC(=O)N[C@@H](C)C(=O)N2CCC[C@H]2C(=O)N2CCC[C@H]2C(=O)N2CCC[C@H]2C(=O)N[C@@H](CO)C(N)=O)NC(=O)[C@H](CC(C)C)NC(=O)[C@H](CC(C)C)NC1=O [WX005] | 5.81 µM·h | 43 nM | 48 h | 100 h | 26 nM | 72 nM | 0.063 nM | 1.21 µM·h | 28 h | 23 h | 0.14 nM | 2.13 µM·h | 12 h | 15 h | 1.4 nM |  |
